Source: PMC13274462, “Growth of Corynebacterium glutamicum on 5-oxo-L-proline (pyroglutamate) as a carbon and nitrogen source requires the PxpR-controlled pxpTABC genes” (Applied and Environmental Microbiology, 2026)

Target: T1, PxpR (Corynebacterium glutamicum, UniProt Q8NRP0)
T1 construct: gene Cgl1008; PxpR protein with a C-terminal Strep-tag-II (PxpR-Strep)
T1 sequence (Q8NRP0 11-227): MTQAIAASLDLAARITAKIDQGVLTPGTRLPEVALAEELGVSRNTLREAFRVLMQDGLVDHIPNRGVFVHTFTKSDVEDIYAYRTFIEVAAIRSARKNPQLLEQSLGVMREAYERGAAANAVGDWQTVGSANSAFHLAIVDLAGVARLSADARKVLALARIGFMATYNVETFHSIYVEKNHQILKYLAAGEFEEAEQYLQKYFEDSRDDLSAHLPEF
Assay: isothermal titration calorimetry (ITC) with purified PxpR-Strep, […]°C, pH […]
Format: binding

- Kd: 726 ± 23 nM
SMILES: O=C1CC[C@@H](C(=O)O)N1 [5-OP, 5-oxo-L-proline]
